Source: PMC8003278, “Structure-Based Virtual Screening and De Novo Design of PIM1 Inhibitors with Anticancer Activity from Natural Products” (Pharmaceuticals, 2021)

Experiments:
PIM1 kinase = molecular target: T1, PIM1 kinase (Homo sapiens, UniProt P11309); assay: radiometric ([γ-33P]-ATP) kinase assay, PIM1 enzyme inhibition (Reaction Biology Corp.); type: biochemical
T1 construct: purchased Reaction Biology Corp. (Malvern, PA, USA), contract assay service
From the text: Among a total of 42,613 natural products in the chemical database, 31,874 molecules that satisfied the physicochemical property criteria for a potential drug candidate were screened through docking simulations in the ATP-binding site of PIM1 kinase, as illustrated in Figure 1. Using the modified binding free energy function involving an accurate molecular dehydration term, 100 top-scoring compounds were selected as the virtual hits, all of which were commercially available from a compound vendor (InterBioScreen Ltd., https://www.ibscreen.com, accessed on 15 October 2019). All these putative inhibitors were tested for the presence of the inhibitory activity against PIM1 kinase with in vitro radiometric ([γ-^33P]-ATP) kinase assays (Reaction Biology Corp., Malvern, PA, USA).
The inhibitory activities of all compounds with respect to PIM1 were measured by Reaction Biology Corp. (Malvern, PA, USA) using radiometric kinase assays ([γ-^33P]-ATP). Briefly, the enzymatic reaction mixtures contained an artificial substrate peptide, poly-Glu-Tyr (4:1), in freshly prepared base reaction buffer (20 mM hydroxyethyl piperazine ethane sulfonic acid (HEPES) of pH 7.5, 10 mM MgCl2, 1 mM ethylene glycol tetraacetic acid (EGTA), 0.02% Brij-35, 0.02 mg/mL bovine serum albumin (BSA), 0.1 mM Na3VO4, 2 mM dithiothreitol (DTT), and 1% DMSO). PIM1 kinase was delivered into the substrate solution and gently mixed. Each inhibitor in 100% DMSO in a serial dilution was then delivered to the reaction mixture using the acoustic dispensing system (Echo550; nanoliter range). To initiate the enzymatic reaction, ^33P-ATP with a specific activity of 10 μCi/μL was added into the reaction mixture, which was further incubated for 2 h at room temperature. Radioactivity was then monitored by the filter-binding method after the reactions were spotted onto P81 ion exchange paper, and the filters were washed extensively in 0.75% phosphoric acid. Kinase activity data were expressed as the percent remaining kinase activity in test samples compared to vehicle (dimethyl sulfoxide) reactions. IC50 values and curve fits were calculated with Prism Software (GraphPad Software) at 10 different concentrations in duplicate.

[1] = test system: T47D human breast cancer cell lines; assay: MTT cell proliferation inhibition assay in T47D cells; type: cell-based; conditions: antiproliferative activity in T47D cell lines, mean ± standard deviation of the two experiments
Method: To assess the anticancer activities of these new PIM1 inhibitors, we carried out cell-based assays for 5, 8, 14, 15, and 16 using T47D human cancer cell lines, which represented breast cancer caused by PIM1 [48]. The natural product wortmannin served as a positive control in this cellular study. Cell viabilities were measured at varying inhibitor concentrations with a 3-(4,5-dimethylthiazol-2-yl)-2,5-diphenyltetrazolium bromide (MTT) assay. […]. However, it should be noted that the inhibitory activities of 14–16 decrease from the nanomolar level in enzyme inhibition assays (Table 2) to the micromolar level in cell proliferation assays. The poor cell permeability can be invoked to explain the reduced biochemical potency in cell-based assays. In order for the new PIM1 inhibitors to become a good lead compound for the development of anticancer medicines, improving cellular permeability using further structural modifications is required.
The T47D human breast cancer cell lines were purchased from Korean Cell Line Bank (KCLB, Seoul, Korea). T47D cells were then cultured in Roswell Park Memorial Institute 1640 (RPMI-1640) medium with 10% fetal bovine serum (FBS) and 1% penicillin/streptomycin, and maintained at 37 °C in a CO2 incubator with a controlled humidified atmosphere comprising 95% air and 5% CO2. All the cell culture reagents were purchased from Thermo Fisher Scientific.
Cell viability was measured with 3-(4,5-dimethylthiazol-2-yl)-2,5-diphenyltetrazolium bromide (MTT) assay using the natural product wortmannin as a positive control. At first, T47D cells were plated at a density of 3–5 × 10^3 cells/well in 96-well plates for 24 h and then treated with either DMSO as a control or with varying concentrations of the PIM1 inhibitors (5, 8, 14, 15, and 16). The final concentration of DMSO in the medium was <0.1% (v/v). After the incubation of cells for 48 h, 20 μL of MTT solution (5 mg/mL) was added to each well for 4 h at 37 °C. The formazan crystals formed during the mixing were dissolved in DMSO (100 μL/well) by shaking for 5 min. Duplicate wells were used for each analysis although triplicate measurements would be more reliable. After 72 h, the absorbance of each solution was measured with a microplate reader at 540 nm to calculate the antiproliferative activity of the PIM1 inhibitors. Finally, the IC50 values were measured from the dose–response curves.

[2] = PIM1, natural-product inhibitors, mean ± standard deviation of the two experiments
[3] = PIM1 kinase, derivatives of 2, mean ± standard deviation of the two experiments

T1 sequence (P11309 whole entry): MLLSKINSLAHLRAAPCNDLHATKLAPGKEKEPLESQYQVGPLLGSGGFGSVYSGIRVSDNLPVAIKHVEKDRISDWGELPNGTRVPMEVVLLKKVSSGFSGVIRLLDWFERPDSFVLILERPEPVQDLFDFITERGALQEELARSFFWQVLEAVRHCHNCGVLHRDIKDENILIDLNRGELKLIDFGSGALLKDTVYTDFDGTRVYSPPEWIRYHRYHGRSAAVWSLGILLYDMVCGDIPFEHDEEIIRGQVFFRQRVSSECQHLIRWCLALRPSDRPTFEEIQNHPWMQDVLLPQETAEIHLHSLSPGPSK

Structure (SMILES) | IC50 (PIM1 kinase; [3]) [nM] | IC50 [1] [nM] | other results
O=c1c(-c2ccc(OC3OC(CO)C(O)C(O)C3O)cc2)coc2cc(O)cc(O)c12 (stereo not shown) [Compound 4] |  |  | IC50 (PIM1 kinase; [2]): 20200 ± 2000 nM
COc1cccc(/C=C2\Oc3cc(O)cc(O)c3C2=O)c1 [Compound 6, (Z)-4,6-Dihydroxy-2-(3-methoxybenzylidene)benzofuran-3(2H)-one] | 310 ± 20 |  | 
COc1c(O)c(O)c2oc(-c3ccccc3)cc(=O)c2c1OC [Compound 1] |  |  | IC50 (PIM1 kinase; [2]): 580 ± 200 nM
O=C1c2c(O)cc(O)cc2O[C@H](c2ccc(O)c(O)c2)[C@H]1O [Compound 3] |  |  | IC50 (PIM1 kinase; [2]): 4000 ± 600 nM
COC[C@H]1OC(=O)c2coc3c2[C@@]1(C)C1=C(C3=O)[C@@H]2CCC(=O)[C@@]2(C)C[C@H]1OC(C)=O [wortmannin, reference compound] |  | 3400 ± 200 | 
COc1ccc(/C=C2\Oc3cc(O)ccc3C2=O)cc1 [Compound 2] | 1190 ± 70 |  | IC50 (PIM1 kinase; [2]): 1200 ± 100 nM
O=C1/C(=C/c2cccc(Cl)c2)Oc2cc(O)cc(O)c21 [Compound 7, (Z)-2-(3-Chlorobenzylidene)-4,6-dihydroxybenzofuran-3(2H)-one] | 1450 ± 100 |  | 
COc1cccc(/C=C2\Oc3cc(O)ccc3C2=O)c1 [Compound 5, (Z)-6-Hydroxy-2-(3-methoxybenzylidene)benzofuran-3(2H)-one] | 260 ± 50 | 15100 ± 1000 | 

Further lines, with some results ahead:

IC50 (PIM1 kinase; [3]) [nM] | IC50 [1] [nM] | Structure (SMILES) | other results
150 ± 10 |  | COc1cc(/C=C2\Oc3cc(O)cc(O)c3C2=O)ccc1Cl [Compound 9, (Z)-2-(4-Chloro-3-methoxybenzylidene)-4,6-dihydroxybenzofuran-3(2H)-one] | 
5230 ± 400 |  | COc1ccc(/C=C2\Oc3cc(O)ccc3C2=O)cn1 [Compound 11, (Z)-6-Hydroxy-2-((6-methoxypyridin-3-yl)methylene)benzofuran-3(2H)-one] | decrease of inhibitory activity by a factor (PIM1 kinase; PIM1, relative to 5 (phenyl ring replaced with pyridine)): 20
8.8 ± 2 | 3200 ± 600 | COc1cc(O)c2c(c1)O/C(=C\c1c[nH]c3ncc(Cl)cc13)C2=O [Compound 15, (Z)-2-((5-Chloro-1H-pyrrolo[2,3-b]pyridin-3-yl)methylene)-4-hydroxy-6-methoxybenzofuran-3(2H)-one] | 
5860 ± 1000 |  | O=C1/C(=C/c2ccc[nH]c2=O)Oc2cc(O)cc(O)c21 [Compound 12, (Z)-3-((4,6-Dihydroxy-3-oxobenzofuran-2(3H)-ylidene)methyl)pyridin-2(1H)-one] | 
680 ± 80 |  | O=C1/C(=C/c2ccc(Cl)c(Cl)c2)Oc2cc(O)cc(O)c21 [Compound 10, (Z)-2-(3,4-Dichlorobenzylidene)-4,6-dihydroxybenzofuran-3(2H)-one] | 
1730 ± 300 |  | O=C1/C(=C/c2cc3ccccc3[nH]c2=O)Oc2cc(O)cc(O)c21 [Compound 13, (Z)-3-((4,6-Dihydroxy-3-oxobenzofuran-2(3H)-ylidene)methyl)quinolin-2(1H)-one] | 
18 ± 2 | 5900 ± 1000 | COc1cc(O)c2c(c1)O/C(=C\c1cc(-c3ccncc3)[nH]n1)C2=O [Compound 14] | 
6.7 ± 3 | 4500 ± 800 | O=C1/C(=C/c2c[nH]c3nc(Cl)ncc23)Oc2cc(O)cc(O)c21 [Compound 16, (Z)-2-((2-Chloro-7H-pyrrolo[2,3-d]pyrimidin-5-yl)methylene)-4,6-dihydroxybenzofuran-3(2H)-one] | IC50 (PIM1 kinase; PIM1): 7 nM
200 ± 30 | 11200 ± 2000 | COc1cc(/C=C2\Oc3cc(O)ccc3C2=O)ccc1Cl [Compound 8, (Z)-2-(4-Chloro-3-methoxybenzylidene)-6-hydroxybenzofuran-3(2H)-one] | 
